Assay results: patent US20070111952A1, “Glycosylated triketide delta lactones” (priority 2003, published 2007)

What was measured:
[1] = tested on: A. azollae vegetative cells; test: Azolla shoot apex bioassay: akinete differentiation of A. azollae / chlorosis of Azolla; format: cell-based, Anabaena azollae
Method: Approximately 10 000 dried N. cornicina (36 g) were ground, suspended in 750 ml H2O, treated 60′ in a 100° C. water bath and centrifuged (14 000×g, 60′). The residue was re-suspended in 300 ml H2O, shacked 15′ and centrifuged (14 000×g, 60′). The two supernatants were grouped, filtered on Macherey-Nagel MN 615 paper and lyophilized. The dry residue (7 g) was suspended in 8 ml H2O, vortexed and centrifuged (7 800×g, 30′). Six ml of supernatant were filtered on acrodiscs 0.22 μm in four 1.5 ml batches, each filtrate being chromatographed on a 500 ml, 2.5 cm diameter Sephadex G 10 column (eluent: water; 3′/fraction, around 6 ml/fraction) The residue was suspended in 2 ml H2O, vortexed and centrifuged (7 800×g, 30′). Two ml of supernatant were filtered and chromatographed as above. This last procedure was repeated twice. Absorbance of each fraction was measured at 254 nm and bioassays were performed on 50 μl of each fraction from the seven chromatograms.
Azolla is a small aquatic fern, which multiplies, most often vegetatively, at the surface of still water bodies, where it can form dense floating carpets. Anabaena azollae is the only known diazotrophic symbiont associated to a pteridophyte, Azolla and the only one linked to a plant throughout its life cycle. […]

[2] = tested on: A. azollae vegetative cells; test: Stability of the akinete-inducing activity (autoclaving, long storage); set-up: species or system Anabaena azollae
Method: Extract of Nephrotoma cornicina (Linnaeus, 1758) (Tipulidae, Diptera) contains a glycosylated triketide lactone, here named cornicinine. The compound according to the invention is present in the head, thorax, abdomen, legs and wings of the insect, from both sexes.
An Azolla shoot apex +/−3 mm long was excised and placed in a 2 ml Eppendorf tube filled with modified, N-free Hoagland solution to which was added the material to be tested. The culture was performed at 26° C. under constant light intensity of 110 μM. m^−2.sec^−1 and with daily adjustment of the liquid level with distilled water to compensate evapotranspiration. Activity was indicated by progressive chlorosis of Azolla, which appears after 5 days. Akinete differentiation can alternatively be followed by observation of leaf squashes under a light microscope, with first symptoms appearing after 48 hours of treatment.

cornicinine was tested, and the “concentration able to induce the differentiation of all the vegetative cells of A. azollae into akinetes” value ([1]; all vegetative cells into akinetes) was “nanomolar concentrations”, the “activity on Azolla species” value ([1]; the seven generally recognised Azolla species) was “active” and the stability [2] was “stable”.
